Results published in patent US3966715A, “Herbicidal agents” (Bayer Aktiengesellschaft, priority 1966, dated 1976).

Assays:
Format in all cases: in vivo
Oats [1] = test: Pre-emergence test, oats; conditions: three weeks
Experimental: (§1) Solvent: 5 parts by weight acetone
(§2) 1 part by weight benzyloxypolyglycol ether
(§3) To produce a suitable preparation of the particular active compound, 1 part by weight of such active compound is mixed with the stated amount of solvent, the stated amount of emulsifier is then added and the resulting concentrate is thereafter diluted with water to the desired final concentration.
(§4) Seeds of the test plants are sown in normal soil and, after 24 hours, watered with the preparation of the given active compound. It is expedient to keep constant the amount of water per unit area. The concentration of the particular active compound in the preparation is of no importance, only the amount of active compound applied per unit area being decisive. After three weeks, the degree of damage to the test plants is determined and characterized by the values 0-5, which have the following meaning:
(§5) The procedure of Example 1 is repeated, and the particular active compounds tested, the amounts applied, and the results obtained can be seen from the following Table 1D: […]

Wheat [2] = test: Post-emergence test, wheat; conditions: three weeks
Experimental: as §1, §2, §3
(§6) Test plants which have a height of about 5--15 cm. are sprayed with the preparation of the given active compound until just dew moist. After three weeks, the degree of damage to the plants is determined and characterized by the values 0-5, which have the following meaning:
(§7) The procedure of Example 2 is repeated, and the particular active compounds tested, and amounts applied, and the results obtained can be seen from the following Table 2E: […]

Echinochloa [3] = test: Pre-emergence test, Echinochloa; conditions: 1.25 kg/hectare, three weeks
Experimental: as §1, §2, §3, §4, §5

Cotton = test: Pre-emergence test, cotton; conditions: three weeks
Experimental: as §1, §2, §3, §4, §5

Wheat [4] = test: Pre-emergence test, wheat; conditions: three weeks
Experimental: as §1, §2, §3, §4, §5

Oats [5] = test: Post-emergence test, oats; conditions: three weeks
Experimental: as §1, §2, §3, §6, §7

Echinochloa [6] = test: Post-emergence test, Echinochloa; conditions: three weeks
Experimental: as §1, §2, §3, §6, §7

Stellaria = test: Post-emergence test, Stellaria; conditions: three weeks
Experimental: as §1, §2, §3, §6, §7

CCNc1nnc(-c2ccccc2)c(=O)n1N [Compound 7, 3-ethylamino-4-amino-6-phenyl-1,2,4-triazine-5-one] was tested, and the “degree of damage, Oats” value (Oats [1]; 2.5 kg/hectare) was 4-5.

CSc1nnc(CC(C)C)c(=O)n1N [Compound 11, 3-methylthio-4-amino-6-isobutyl-1,2,4-triazine-5-one] was tested, and the “degree of damage, Wheat” value (Wheat [2]; 2.4 Kg/hectare) was 4-5.

For CN(C)c1nnc(-c2ccccc2)c(=O)n1N [Compound 16, 3-dimethylamino-4-amino-6-phenyl-1,2,4-triazine-5-one], the “degree of damage, Wheat” value (Wheat [2]; 1.2 Kg/hectare) was 4-5, the “degree of damage, Echinochloa” value (Echinochloa [3]) was 4-5 and the “degree of damage, Cotton” value (Cotton; 2.5 kg/hectare) was 4-5. For the same compound, the “degree of damage, Wheat” value (Wheat [4]; 1.25 kg/hectare) was 4-5, the “degree of damage, Wheat” value (Wheat [4]; 2.5 kg/hectare) was 4-5 and the “degree of damage, Wheat” value (Wheat [4]; 5 kg/hectare) was 4-5.

In the case of CCc1nnc(SC)n(N)c1=O [Compound 22, 3-methylthio-4-amino-6-ethyl-1,2,4-triazine-5-one], the “degree of damage, Oats” value (Oats [5]; 1.2 Kg/hectare) is reported as 4-5, the “degree of damage, Oats” value (Oats [5]; 2.4 Kg/hectare) is reported as 4-5 and the “degree of damage, Wheat” value (Wheat [4]; 5 kg/hectare) is reported as 4-5.

With CSc1nnc(CCC(C)C)c(=O)n1N [Compound 23, 3-methylthio-4-amino-6-isopentyl-1,2,4-triazine-5-one] the “degree of damage, Wheat” value (Wheat [2]; 2.4 Kg/hectare) was 4-5.

With CCSc1nnc(C(C)C)c(=O)n1N [Compound 148, 3-ethylthio-4-amino-6-isopropyl-1,2,4-triazine-5-one] the “degree of damage, Oats” value (Oats [1]; 1.25 kg/hectare) was 4-5, the “degree of damage, Oats” value (Oats [1]; 2.5 kg/hectare) was 4-5 and the “degree of damage, Oats” value (Oats [1]; 5 kg/hectare) was 4-5. The “degree of damage, Echinochloa” value (Echinochloa [6]; 0.6 Kg/hectare) was 4-5, the “degree of damage, Echinochloa” value (Echinochloa [6]; 1.2 Kg/hectare) was 4-5 and the “degree of damage, Stellaria” value (Stellaria; 2.4 Kg/hectare) was 4-5. The “degree of damage, Wheat” value (Wheat [2]; 2.4 Kg/hectare) was 4-5, the “degree of damage, Cotton” value (Cotton; 2.5 kg/hectare) was 4-5 and the “degree of damage, Cotton” value (Cotton; 5 kg/hectare) was 4-5. For the same compound, the “degree of damage, Wheat” value (Wheat [4]; 1.25 kg/hectare) was 3-4.

In the case of CCCc1nnc(SC)n(N)c1=O [Compound 153, 3-methylthio-4-amino-6-n-propyl-1,2,4-triazine-5-one], the “degree of damage, Oats” value (Oats [1]; 1.25 kg/hectare) is reported as 4-5, the “degree of damage, Oats” value (Oats [1]; 2.5 kg/hectare) is reported as 4-5 and the “degree of damage, Oats” value (Oats [5]; 2.4 Kg/hectare) is reported as 4-5. For the same compound, the “degree of damage, Cotton” value (Cotton; 1.25 kg/hectare) was 4-5.

With C#CCSc1nnc(C(C)C)c(=O)n1N [Compound 158, 3-propargylthio-4-amino-6-isopropyl-1,2,4-triazine-5-one] the “degree of damage, Stellaria” value (Stellaria; 1.2 Kg/hectare) was 4-5.

CNc1nnc(C(C)(C)C)c(=O)n1N [Compound 175, 3-methylamino-4-amino-6-tert.-butyl-1,2,4-triazine-5-one] was tested, and the “degree of damage, Echinochloa” value (Echinochloa [6]; 0.6 Kg/hectare) was 4-5, the “degree of damage, Echinochloa” value (Echinochloa [6]; 1.2 Kg/hectare) was 4-5 and the “degree of damage, Oats” value (Oats [5]; 0.6 Kg/hectare) was 4-5. The “degree of damage, Oats” value (Oats [5]; 1.2 Kg/hectare) was 4-5 and the “degree of damage, Wheat” value (Wheat [2]; 2.4 Kg/hectare) was 4-5.

With CCNc1nnc(C(C)(C)C)c(=O)n1N [Compound 176, 3-ethylamino-4-amino-6-tert.-butyl-1,2,4-triazine-5-one] the “degree of damage, Echinochloa” value (Echinochloa [6]; 2.4 Kg/hectare) was 4-5 and the “degree of damage, Stellaria” value (Stellaria; 0.6 Kg/hectare) was 4-5.

In the case of CCCNc1nnc(C(C)C)c(=O)n1N [Compound 178, 3-n-propylamino-4-amino-6-isopropyl-1,2,4-triazine-5-one], the “degree of damage, Wheat” value (Wheat [4]; 5 kg/hectare) is reported as 2-3.

In the case of CCCCNc1nnc(C2CCCCC2)c(=O)n1N [Compound 182, 3-n-butylamino-4-amino-6-cyclohexyl-1,2,4-triazine-5-one], the “degree of damage, Oats” value (Oats [1]; 40 Kg/hectare) is reported as 4-5, the “degree of damage, Echinochloa” value (Echinochloa [6]; 10 Kg/hectare) is reported as 4-5 and the “degree of damage, Wheat” value (Wheat [4]; 40 Kg/hectare) is reported as 4-5.

For CSc1nnc(C(C)(C)C)c(=O)n1NC(O)C(Cl)(Cl)Cl (stereo not drawn) [Compound 192, 3-methylthio-4-(β-trichloro-α-hydroxy-ethyl)-amino-6-tert.-butyl-1,2,4-triazine-5-one], the “degree of damage, Oats” value (Oats [1]; 1.25 kg/hectare) was 4-5, the “degree of damage, Oats” value (Oats [1]; 2.5 kg/hectare) was 4-5 and the “degree of damage, Oats” value (Oats [5]; 2.4 Kg/hectare) was 4-5. For the same compound, the “degree of damage, Cotton” value (Cotton; 1.25 kg/hectare) was 4-5 and the “degree of damage, Cotton” value (Cotton; 2.5 kg/hectare) was 4-5.

In the case of CSc1nnc(C(C)C)c(=O)n1N=CC1CCCCC1 [Compound 197, 3-methylthio-4-(hexahydrobenzylidene-amino)-6-isopropyl-1,2,4-triazine-5-one], the “degree of damage, Echinochloa” value (Echinochloa [6]; 1.2 Kg/hectare) is reported as 4-5, the “degree of damage, Wheat” value (Wheat [2]; 1.2 Kg/hectare) is reported as 4-5 and the “degree of damage, Wheat” value (Wheat [4]; 1.25 kg/hectare) is reported as 4-5.

In the case of CSc1nnc(C(C)C)c(=O)n1N=Cc1ccccc1 [Compound 198, 3-methylthio-4-(benzylidene-amino)-6-isopropyl-1,2,4-trizaine-5-one], the “degree of damage, Oats” value (Oats [5]; 0.6 Kg/hectare) is reported as 3-4, the “degree of damage, Oats” value (Oats [5]; 2.4 Kg/hectare) is reported as 4-5 and the “degree of damage, Stellaria” value (Stellaria; 0.6 Kg/hectare) is reported as 4-5. For the same compound, the “degree of damage, Wheat” value (Wheat [4]; 1.25 kg/hectare) was 4-5.

CSc1nnc(C(C)C)c(=O)n1N=Cc1ccc(Cl)cc1 [Compound 201, 3-methylthio-4-(4'-chloro-benzylidene-amino)-6-isopropyl-1,2,4-triazine-5-one] was tested, and the “degree of damage, Echinochloa” value (Echinochloa [6]; 1.2 Kg/hectare) was 4-5, the “degree of damage, Stellaria” value (Stellaria; 1.2 Kg/hectare) was 4-5 and the “degree of damage, Wheat” value (Wheat [4]; 1.25 kg/hectare) was 4-5.

For CSc1nnc(C(C)C)c(=O)n1N=Cc1ccco1 [Compound 203, 3-methylthio-4-(furfur-2'-ylidene-amino)-6-isopropyl-1,2,4-triazine-5-one], the “degree of damage, Stellaria” value (Stellaria; 2.4 Kg/hectare) was 4-5, the “degree of damage, Wheat” value (Wheat [2]; 1.2 Kg/hectare) was 4-5 and the “degree of damage, Cotton” value (Cotton; 1.25 kg/hectare) was 4-5.

With CSc1nnc(C(C)C)c(=O)n1N=C1CCCCC1 [Compound 204, 3-methylthio-4-(cyclohexylidene-amino)-6-isopropyl-1,2,4-triazine-5-one] the “degree of damage, Stellaria” value (Stellaria; 0.6 Kg/hectare) was 4-5 and the “degree of damage, Wheat” value (Wheat [4]; 1.25 kg/hectare) was 4-5.

In the case of CSc1nnc(C(C)C)c(=O)n1N=Cc1ccccc1C [Compound 206, 3-methylthio-4-(2'-methyl-benzylidene-amino)-6-isopropyl-1,2,4-triazine-5-one], the “degree of damage, Oats” value (Oats [5]; 2.4 Kg/hectare) is reported as 4-5, the “degree of damage, Stellaria” value (Stellaria; 0.6 Kg/hectare) is reported as 4-5 and the “degree of damage, Wheat” value (Wheat [2]; 1.2 Kg/hectare) is reported as 3-4. The “degree of damage, Cotton” value (Cotton; 1.25 kg/hectare) was 4-5.

CSc1nnc(C(C)C)c(=O)n1N=Cc1ccc([N+](=O)[O-])cc1 [Compound 210, 3-methylthio-4-(4'-nitro-benzylidene-amino)-6-isopropyl-1,2,4-triazine-5-one] was tested, and the “degree of damage, Oats” value (Oats [1]; 2.5 kg/hectare) was 4-5, the “degree of damage, Oats” value (Oats [1]; 5 kg/hectare) was 4-5 and the “degree of damage, Cotton” value (Cotton; 2.5 kg/hectare) was 4-5. The “degree of damage, Cotton” value (Cotton; 5 kg/hectare) was 4-5.

With CSc1nnc(C(C)(C)C)c(=O)n1N=CC(C)C [Compound 215, 3-methylthio-4-(isobutylidene-amino)-6-tert.-butyl-1,2,4-triazine-5-one] the “degree of damage, Wheat” value (Wheat [2]; 1.2 Kg/hectare) was 4-5.

For CCC=Nn1c(SC)nnc(C(C)C)c1=O [Compound 216, 3-methylthio-4-(n-propylidene-amino)-6-isopropyl-1,2,4-triazine-5-one], the “degree of damage, Wheat” value (Wheat [4]; 1.25 kg/hectare) was 4-5.

With CCCC=Nn1c(SC)nnc(C(C)C)c1=O [Compound 217, 3-methylthio-4-(n-butylidene-amino)-6-isopropyl-1,2,4-triazine-5-one] the “degree of damage, Wheat” value (Wheat [4]; 1.25 kg/hectare) was 4-5.

With CSc1nnc(C(C)(C)C)c(=O)n1N=C(C)C [Compound 220, 3-methylthio-4-(prop-2'-ylidene-amino)-6-tert.-butyl-1,2,4-triazine-5-one] the “degree of damage, Wheat” value (Wheat [4]; 1.25 kg/hectare) was 4-5.

For CSc1nnc(C2CCCCC2)c(=O)n1N=C(C)C [Compound 224, 3-methylthio-4-(prop-2'-ylidene-amino)-6-cyclohexyl-1,2,4-triazine-5-one], the “degree of damage, Oats” value (Oats [5]; 1.2 Kg/hectare) was 4-5, the “degree of damage, Wheat” value (Wheat [2]; 1.2 Kg/hectare) was 4-5 and the “degree of damage, Wheat” value (Wheat [2]; 2.4 Kg/hectare) was 4-5. For the same compound, the “degree of damage, Wheat” value (Wheat [4]; 1.25 kg/hectare) was 4-5.

CSc1nnc(C2CCCCC2)c(=O)n1N=CC1CCCCC1 [Compound 228, 3-methylthio-4-(hexahydrobenzylidene-amino)-6-cyclohexyl-1,2,4-triazine-5-one] was tested, and the “degree of damage, Oats” value (Oats [1]; 5 kg/hectare) was 4-5, the “degree of damage, Echinochloa” value (Echinochloa [6]; 0.6 Kg/hectare) was 4-5 and the “degree of damage, Oats” value (Oats [5]; 1.2 Kg/hectare) was 4-5. The “degree of damage, Wheat” value (Wheat [2]; 0.6 Kg/hectare) was 4-5, the “degree of damage, Wheat” value (Wheat [2]; 1.2 Kg/hectare) was 4-5 and the “degree of damage, Wheat” value (Wheat [4]; 5 kg/hectare) was 4-5.

With CNc1nnc(C(C)(C)C)c(=O)n1N=C(C)C [Compound 232, 3-methylamino-4-(prop-2'-ylidene-amino)-6-tert.-butyl-1,2,4-triazine-5-one] the “degree of damage, Oats” value (Oats [1]; 1.25 kg/hectare) was 4-5 and the “degree of damage, Wheat” value (Wheat [2]; 1.2 Kg/hectare) was 4-5.

In the case of CNn1c(OC)nnc(-c2ccccc2)c1=O [Compound 234, 3-methoxy-4-methylamino-6-phenyl-1,2,4-triazine-5-one], the “degree of damage, Oats” value (Oats [1]; 5 kg/hectare) is reported as 4-5.
